Patent US9821010B2, “Methods for expansion or depletion of T-regulatory cells” (The General Hospital Corporation, priority 2013, dated 2017)
“Also recorded” adds a separate entry of the source.

How the values were obtained:
[1] = system: CD25+FOXP3− cell population; assay: Overnight incubation of CD4+ cells with IL-2: CD25+FOXP3- cell population; format: cell-based, human; conditions: overnight incubation with IL-2
Protocol: Despite high expression of TNFR2 on Tregs, some TNFR2 expression is also observable on CD4+ T cells that are not true Tregs because they only express intermediate levels of CD25, i.e., CD4^+CD25^mid cells. I therefore studied the impact of overnight incubation on CD25^mid cell subpopulations of IL-2 alone, IL-2 and TNF-α, or IL-2 and TNFR2 agonist, or IL-2 and TNFR2 antagonist. […] However, I observed suppression with IL-2 and TNFR2 antagonist relative to the other three groups.

[2] = system: freshly isolated human CD4+ cells; assay: FOXP3 induction by TNF-α in freshly isolated human CD4+ cells; format: cell-based
Protocol: I cultured freshly isolated human CD4+ cells from 14 human subjects only with TNF-α for 16 hours (FIG. 1B). […] IL-2 is important for Tregs induction and maintenance in mice. […] Thus, the data in FIGS. 1B and 1C confirm that TNF-α […] in vitro.

[3] = system: expanded CD4+CD25+ cells; assay: Intracellular cytokine production of expanded Tregs after PMA and ionomycin; format: cell-based, human; conditions: PMA and ionomycin 24 hours; Tregs expanded with rapamycin
Protocol: Expanded CD4^+CD25^+ cells were stimulated with phorbol myristate acetate (PMA) (2 ng/ml) and ionomycin (500 ng/ml) (Sigma) for 24 hours. Monensin (GolgiStop, BD Biosciences) was added for the last 4 hours of incubation. Cells were fixed and permeabilized using Human FOXP3 Buffer Set, followed by staining with fluorochrome-conjugated IFNγ and IL-10 mAbs.
One of the reasons for these Tregs showing high suppression capacity over CD8+ T cells may be due to Tregs lacking the ability to produce IFNγ.

[4] = co-incubation with IL-2, compared to IL-2 alone

TNF-α was tested, and the “proportion of CD25hiFOXP3− cells” value [1] was “rise in the proportion of CD25^hiFOXP3^− cells”, the “proportion of CD25hiFOXP3− cells” value ([1]; listed as TNF) was “Significant percentage increases” and the “induction of Tregs (inducible FOXP3)” value ([2]; TNF-α alone, 16 hours, 14 subjects) was “no induction of Tregs; also recorded: does not induce FOXP3”. The “induction of Tregs (inducible FOXP3)” value [2, 4] was “significant increase in Tregs over IL-2 alone; also recorded: does induce it to higher levels”, the “percentage of CD4+CD25hi FOXP3 cells (flow cytometry)” value [2, 4] was “increased the percentage of CD4+CD25^hi FOXP3 cells; also recorded: greater intracellular induction of FOXP3” and the “percentage of IFNγ+ cells / IFNγ production” value [3] was “lowest percentages of IFNγ+ cells”.
